Test results reported in ChEMBL document CHEMBL4270535, “Facile synthesis of vanillin-based novel bischalcones identifies one that induces apoptosis and displays synergy with Artemisinin in killing chloroquine resistant Plasmodium falciparum” (Eur J Med Chem, 2018).
pIC50: −log10 of the molar value. Activity calls are given as the source filed them. No cut-off for these calls is given here.

Assays:
Plasmodium falciparum [1] = experiment: Synergistic plasmodicidal activity against synchronized ring stage of chloroquine-resistant Plasmodium falciparum INDO infected in human erythrocytes assessed as parasite killing at FIC90 treated for 6 to 48 hrs followed by compound wash out measured after 48 to 90 hrs followed by compound wash out measured after 48 to 90 hrs in presence of chloroquine by Giemsa staining based microscopic analysis; assay type: functional, organism-based
Plasmodium falciparum [2] = experiment: Antiplasmodial activity against synchronized schizont stage of chloroquine-resistant Plasmodium falciparum INDO infected in human erythrocytes assessed as parasite growth inhibition at 8 uM treated for 12 hrs by Giemsa staining based microscopic analysis; assay type: functional, organism-based
Plasmodium falciparum [3] = experiment: Synergistic antiplasmodial activity against synchronized schizont stage of chloroquine-resistant Plasmodium falciparum INDO infected in human erythrocytes assessed as parasite growth inhibition at FIC90 treated for 12 hrs followed by compound wash out measured after 48 hrs in presence of chloroquine by Giemsa staining based microscopic analysis; assay type: functional, organism-based
Plasmodium falciparum [4] = experiment: Induction of apoptosis in synchronized trophozoite stage of chloroquine-resistant Plasmodium falciparum INDO infected in human erythrocytes assessed as parasite killing at 8 uM up to 24 hrs by Giemsa staining based microscopic analysis; assay type: functional, organism-based
Plasmodium falciparum [5] = experiment: Induction of apoptosis in synchronized trophozoite stage of chloroquine-resistant Plasmodium falciparum INDO infected in human erythrocytes assessed as translocation of phosphatidylserine from inner to outer leaflet of plasma membrane at 8 uM after 12 hrs by Annexin-V/Alexa fluor-488 staining based flow cytometry; assay type: functional, organism-based
Plasmodium falciparum [6] = experiment: Induction of apoptosis in synchronized trophozoite stage of chloroquine-resistant Plasmodium falciparum INDO infected in human erythrocytes assessed as activation of caspase-like protease at 8 uM after 12 hrs by Caspase FITC-VAD-FMK substrate based fluorescence microscopic analysis; assay type: functional, organism-based
Plasmodium falciparum [7] = experiment: Synergistic antiplasmodial activity against synchronized ring stage of chloroquine-resistant Plasmodium falciparum INDO infected in human erythrocytes assessed as FIC index in presence of artemisinin; assay type: functional
Plasmodium falciparum [8] = experiment: Synergistic antiplasmodial activity against synchronized ring stage of chloroquine-resistant Plasmodium falciparum INDO infected in human erythrocytes assessed as FIC index in presence of chloroquine; assay type: functional
Plasmodium falciparum [9] = experiment: Plasmodicidal activity against synchronized trophozoite stage of chloroquine-resistant Plasmodium falciparum INDO infected in human erythrocytes assessed as parasite killing at 8 uM treated for 18 to 24 hrs followed by compound wash out measured after 48 to 54 hrs by Giemsa staining based microscopic analysis; assay type: functional, organism-based
Plasmodium falciparum [10] = experiment: Synergistic antiplasmodial activity against synchronized schizont stage of chloroquine-resistant Plasmodium falciparum INDO infected in human erythrocytes assessed as parasite growth inhibition at 2 times FIC100 treated for 12 hrs followed by compound wash out measured after 48 hrs in presence of chloroquine by Giemsa staining based microscopic analysis; assay type: functional, organism-based
Plasmodium falciparum [11] = experiment: Induction of apoptosis in synchronized trophozoite stage of chloroquine-resistant Plasmodium falciparum INDO infected in human erythrocytes assessed as activation of caspase-like protease at 8 uM after 12 hrs by Caspase FITC-VAD-FMK substrate based flow cytometry; assay type: functional, organism-based
Plasmodium falciparum [12] = experiment: Synergistic plasmodicidal activity against synchronized ring stage of chloroquine-resistant Plasmodium falciparum INDO infected in human erythrocytes assessed as parasite killing at FIC90 treated for 6 to 48 hrs followed by compound wash out measured after 48 to 90 hrs followed by compound wash out measured after 48 to 90 hrs in presence of artemisinin by Giemsa staining based microscopic analysis; assay type: functional, organism-based
Plasmodium falciparum [13] = experiment: Antiplasmodial activity against synchronized trophozoite stage of chloroquine-resistant Plasmodium falciparum INDO infected in human erythrocytes assessed as parasite growth inhibition at 8 uM treated for 18 to 24 hrs by Giemsa staining based microscopic analysis; assay type: functional, organism-based
Plasmodium falciparum [14] = experiment: Synergistic antiplasmodial activity against synchronized ring stage of chloroquine-sensitive Plasmodium falciparum 3D7 infected in human erythrocytes assessed as FIC index in presence of chloroquine; assay type: functional
Plasmodium falciparum [15] = experiment: Synergistic antiplasmodial activity against synchronized trophozoite stage of chloroquine-resistant Plasmodium falciparum INDO infected in human erythrocytes assessed as parasite growth inhibition at 2 times FIC100 treated for 18 to 24 hrs followed by compound wash out measured after 48 to 54 hrs in presence of chloroquine by Giemsa staining based microscopic analysis; assay type: functional, organism-based
Plasmodium falciparum [16] = experiment: Synergistic plasmodicidal activity against synchronized trophozoite stage of chloroquine-resistant Plasmodium falciparum INDO infected in human erythrocytes assessed as parasite killing at FIC90 treated for 18 to 24 hrs followed by compound wash out measured after 48 to 54 hrs followed by compound wash out measured after 48 to 54 hrs in presence of artemisinin by Giemsa staining based microscopic analysis; assay type: functional, organism-based
Plasmodium falciparum [17] = experiment: Antiplasmodial activity against synchronized ring stage of chloroquine-resistant Plasmodium falciparum INDO infected in human erythrocytes after 48 hrs by SYBR Green 1 dye based fluorescence assay; assay type: functional, organism-based
Plasmodium falciparum [18] = experiment: Synergistic antiplasmodial activity against synchronized ring stage of chloroquine-sensitive Plasmodium falciparum 3D7 infected in human erythrocytes assessed as ratio of IC50 in absence of artemisinin to IC50 in presence of artemisinin; assay type: functional
Plasmodium falciparum [19] = experiment: Synergistic plasmodicidal activity against synchronized trophozoite stage of chloroquine-resistant Plasmodium falciparum INDO infected in human erythrocytes assessed as parasite killing at FIC90 treated for 18 to 24 hrs followed by compound wash out measured after 48 to 54 hrs followed by compound wash out measured after 48 to 54 hrs in presence of chloroquine by Giemsa staining based microscopic analysis; assay type: functional, organism-based
Plasmodium falciparum [20] = experiment: Synergistic antiplasmodial activity against synchronized trophozoite stage of chloroquine-resistant Plasmodium falciparum INDO infected in human erythrocytes assessed as parasite growth inhibition at FIC90 treated for 18 to 24 hrs followed by compound wash out measured after 48 to 54 hrs in presence of chloroquine by Giemsa staining based microscopic analysis; assay type: functional, organism-based
[21] = Resistance index, ratio of IC50 for synchronized ring stage of chloroquine-resistant Plasmodium falciparum INDO infected in human erythrocytes to IC50 for synchronized ring stage of chloroquine-sensitive Plasmodium falciparum 3D7 infected in human erythrocytes; assay type: functional
Plasmodium falciparum [22] = experiment: Induction of apoptosis in synchronized trophozoite stage of chloroquine-resistant Plasmodium falciparum INDO infected in human erythrocytes assessed as translocation of phosphatidylserine from inner to outer leaflet of plasma membrane at 8 uM after 12 hrs by Annexin-V/Alexa fluor-488 staining based fluorescence microscopic analysis; assay type: functional, organism-based
Plasmodium falciparum [23] = experiment: Synergistic antiplasmodial activity against synchronized trophozoite stage of chloroquine-resistant Plasmodium falciparum INDO infected in human erythrocytes assessed as parasite growth inhibition at FIC90 treated for 18 to 24 hrs followed by compound wash out measured after 48 to 54 hrs in presence of artemisinin by Giemsa staining based microscopic analysis; assay type: functional, organism-based
[24] = Selectivity index, ratio of IC50 for mouse L929 cells to IC50 for synchronized ring stage of chloroquine-sensitive Plasmodium falciparum 3D7 infected in human erythrocytes; assay type: toxicity, cell-based; conditions: read-out: Ratio IC50
Plasmodium falciparum [25] = experiment: Synergistic antiplasmodial activity against synchronized ring stage of chloroquine-sensitive Plasmodium falciparum 3D7 infected in human erythrocytes assessed as FIC index in presence of artemisinin; assay type: functional
Plasmodium falciparum [26] = experiment: Antiplasmodial activity against synchronized ring stage of chloroquine-resistant Plasmodium falciparum INDO infected in human erythrocytes assessed as parasite growth inhibition at 8 uM treated for 6 to 48 hrs by Giemsa staining based microscopic analysis; assay type: functional, organism-based
Plasmodium falciparum [27] = experiment: Induction of mitochondrial membrane potential loss in synchronized trophozoite stage of chloroquine-resistant Plasmodium falciparum INDO infected in human erythrocytes at 8 uM after 18 to 24 hrs by fluorescence microscopic analysis; assay type: functional, organism-based

Question: What does the source list for `C=CCc1cc(/C=C/C(=O)c2cccc(C(=O)/C=C/c3cc(CC=C)c(OC)c(OC)c3)c2)cc(OC)c1OC`?
Answer: Activity (Plasmodium falciparum [1]): inactive; Activity (Plasmodium falciparum [2]): Active; Activity (Plasmodium falciparum [3]): Active; Activity (Plasmodium falciparum [4]): Active; Activity (Plasmodium falciparum [5]): Active; Activity (Plasmodium falciparum [6]): Active; fractional inhibitory concentration index (FICI) (Plasmodium falciparum [7]): 0.46 - 0.58; fractional inhibitory concentration index (FICI) (Plasmodium falciparum [8]): 0.7 - 1.23; Activity (Plasmodium falciparum [9]): Active; Activity (Plasmodium falciparum [10]): Active; Activity (Plasmodium falciparum [11]): Active; Activity (Plasmodium falciparum [12]): inactive; Activity (Plasmodium falciparum [13]): Active; fractional inhibitory concentration index (FICI) (Plasmodium falciparum [14]): 1.38 - 3.34; Activity (Plasmodium falciparum [15]): Active; Activity (Plasmodium falciparum [16]): inactive; pIC50 (Plasmodium falciparum [17]): 5.42; Ratio IC50 (Plasmodium falciparum [18]): 20 - 311; Activity (Plasmodium falciparum [19]): inactive; Activity (Plasmodium falciparum [20]): Active; Ratio IC50 [21]: 1.5; Activity (Plasmodium falciparum [22]): Active; Activity (Plasmodium falciparum [23]): Active; selectivity ratio [24]: 8.8; fractional inhibitory concentration index (FICI) (Plasmodium falciparum [25]): 1.33 - 1.58; Activity (Plasmodium falciparum [26]): Active; Activity (Plasmodium falciparum [27]): Active
